Consider 34 compounds from ChEMBL document CHEMBL4043297, “Synthesis and Structure-Activity Relationships of the Novel Antimalarials 5-Pyridinyl-4(1 H)-Pyridones” (J Med Chem, 2018).

Structures are written as SMILES.

The test system of the assay is Plasmodium falciparum. In words: Antimalarial activity against Plasmodium falciparum 3D7A infected in human RBC after 48 hrs by [3H]-hypoxanthine incorporation assay. Type of assay: functional.
One may read the IC50 as the concentration needed to halve the response being measured. A low value points to inhibition by little substance. `Cc1[nH]c(CO)c(-c2ccc(Oc3ccc(OC(F)(F)F)cc3)cc2)c(=O)c1Cl`: half-maximal inhibition (IC50) required 5 nM. Compound `Cc1[nH]c(CO)c(Cl)c(=O)c1-c1ccc(Oc2ccc(OC(F)(F)F)cc2)cc1` yielded an IC50 of 133 nM. As for `Cc1[nH]c(C)c(-c2ccc(OCc3cccc(C(F)(F)F)c3)nc2)c(=O)c1Cl`, the midpoint of inhibition, the IC50, lay at 5 nM. Regarding `Cc1[nH]c(C)c(-c2ccc(Oc3ccc(OC(F)(F)F)cc3)nc2)c(=O)c1Cl`, the midpoint of inhibition, the IC50, lay at 33 nM.

`Cc1[nH]c(C)c(-c2ccc(-c3ccccc3OC(F)(F)F)nc2)c(=O)c1Cl` registered an IC50 of 35 nM. Under `Cc1[nH]c(C)c(-c2ccc(-c3ccc(F)cc3)nc2)c(=O)c1Cl` stands 82 nM. For `Cc1[nH]c(C)c(-c2ccc(OCc3ccc(F)cc3)nc2)c(=O)c1Cl`, the IC50 is 33 nM. As to `Cc1[nH]c(C)c(-c2ccc(-c3cccc(CO)c3)nc2)c(=O)c1Br`, inhibition was half-maximal at 324 nM (IC50). The result for `Cc1[nH]c(C)c(-c2ccc(C#Cc3ccc(F)cc3F)nc2)c(=O)c1Cl` reads 472 nM; that for `Cc1[nH]c(C)c(-c2ccc(-c3ccc(S(C)(=O)=O)cc3)nc2)c(=O)c1Br`, 288 nM; that for `Cc1[nH]c(C)c(-c2ccc(OCc3ccc(C(F)(F)F)cc3)nc2)c(=O)c1Cl`, 5 nM.

`Cc1[nH]c(C)c(-c2ccc(C#Cc3ccc(C(F)(F)F)cc3)nc2)c(=O)c1Br` displayed an IC50 of 58 nM.

Consider `Cc1[nH]c(C)c(-c2ccc(OCc3ccc(C(F)(F)F)cc3)nc2)c(=O)c1Br`, for which the IC50 came to 2 nM. This IC50 lies about 29-fold lower than the previous one. In turn, `Cc1[nH]c(C)c(-c2ccc(OCc3ccccc3C(F)(F)F)nc2)c(=O)c1Cl` yielded an IC50 of 10 nM. `Cc1[nH]c(C)c(-c2ccc(C#Cc3ccc(C(F)(F)F)cc3)nc2)c(=O)c1Cl`: inhibition was half-maximal at 97 nM (IC50). Against the preceding compound, the IC50 is about 9.7-fold higher. For `Cc1[nH]c(C)c(-c2ccc(-c3ccccc3F)nc2)c(=O)c1Br`, half-maximal inhibition (IC50) required 64 nM. Regarding `Cc1[nH]c(C)c(-c2ccc(-c3ccc(F)cc3)nc2)c(=O)c1Br`, the IC50 came to 129 nM. This IC50 is about 2-fold higher than that of the compound before. The result for `Cc1[nH]c(C)c(-c2ccc(OCc3cc(F)cc(F)c3)nc2)c(=O)c1Cl` reads 80 nM; that for `Cc1[nH]c(C)c(-c2ccc(-c3ccccc3F)nc2)c(=O)c1Cl`, 49 nM. Take `Cc1[nH]c(C)c(-c2ccc(OCc3cc(F)cc(F)c3)nc2)c(=O)c1Br`: 40 nM corresponded to half-maximal inhibition (IC50). This IC50 and that of the compound before are within 1.5-fold of each other. The compound `Cc1[nH]c(C)c(-c2ccc(OCc3ccc(F)cc3)nc2)c(=O)c1Br` displayed an IC50 of 10 nM. `Cc1[nH]c(C)c(-c2ccc(-c3cccc(Cl)c3)nc2)c(=O)c1Cl`: the IC50 was 116 nM. For `Cc1[nH]c(C)c(-c2ccc(-c3ccc(C(F)(F)F)cc3C(F)(F)F)nc2)c(=O)c1Br`, it took 6 nM to reach half-maximal inhibition (IC50). For the compound `Cc1[nH]c(C)c(-c2ccc(OCc3cc(C(F)(F)F)cc(C(F)(F)F)c3)nc2)c(=O)c1Cl`, half-maximal inhibition (IC50) was put at 29 nM. `Cc1[nH]c(C)c(-c2ccc(-c3ccc(Cl)cc3)nc2)c(=O)c1Br` displayed an IC50 of 110 nM. Compound `Cc1[nH]c(C)c(-c2ccc(OCc3ccccc3C(F)(F)F)nc2)c(=O)c1Br` displayed an IC50 of 11 nM. Take `Cc1[nH]c(C)c(-c2ccc(CCc3ccc(C(F)(F)F)cc3)nc2)c(=O)c1Cl`: the IC50 stood at 5 nM. This IC50 is about 2.2-fold lower than that of the compound before. Under `Cc1[nH]c(C)c(-c2ccc(OCc3cccc(C(F)(F)F)c3)nc2)c(=O)c1Br` stands 4 nM. For `Cc1[nH]c(C)c(-c2ccc(CCc3cccc(C(F)(F)F)c3)nc2)c(=O)c1Cl`, the IC50 turned out to be 7 nM. `Cc1[nH]c(C)c(-c2ccc(-c3cccc(C(F)(F)F)c3)nc2)c(=O)c1Br` showed an IC50 of 7 nM.

Turning to `Cc1[nH]c(C)c(-c2ccc(-c3ccccc3Cl)nc2)c(=O)c1Br`, the midpoint of inhibition, the IC50, lay at 44 nM. This IC50 lies about 6.3-fold higher than the previous one. Compound `Cc1[nH]c(C)c(-c2ccc(-c3ccccc3Cl)nc2)c(=O)c1Cl` registered an IC50 of 26 nM. Turning to `Cc1[nH]c(C)c(-c2ccc(OCc3cc(C(F)(F)F)cc(C(F)(F)F)c3)nc2)c(=O)c1Br`, the IC50 came out at 33 nM.

With `Cc1[nH]c(C)c(-c2ccc(-c3ccc(C#N)cc3)nc2)c(=O)c1Br`, half-maximal inhibition (IC50) was put at 329 nM.
